From patent US20260209233A1, “ANNULATED PYRIDAZINE DERIVATIVE” (Tenvie Therapeutics, Inc., priority 2022, published 2026) come the findings set out here.

Structures can show the parent of a compound that is named as a salt.

For this assay, the target named is T1, NLRP3 inflammasome (Homo sapiens, UniProt Q96P20).
T1 construct: endogenous in cells; host or cells: THP-1 cells, PMA-differentiated and stimulated with LPS and ATP
In words: THP-1 IL-1β production inhibition test. Type of assay: cell-based. The conditions noted are these: PMA-treated THP-1 cells, LPS 50 ng/ml + ATP 5 mM, 2 hours, IL-1β in supernatant by ELISA. Here is the method: Test Example 1: THP-1 IL-1β Production Inhibition Test
PMA (phorbol myristate acetate, SIGMA, P1585) was added to THP-1 cells in an amount of 50 ng/mL to culture the cells for 2 days at 37° C. The culture medium was replaced with a serum-free RPMI-1640 medium, and a compound with a known concentration was added thereto to culture the cells at 37° C. for 15 minutes. LPS (Lipopolysaccharide, SIMGA, L2880) and ATP (Adenosine triphosphate, SIGMA, A2383) were added so that final concentrations become 50 ng/ml and 5 mM, respectively, followed by culturing at 37° C. for 2 hours. The supernatants were collected to measure the concentrations of IL-1β by ELISA (DuoSet ELISA human IL-1β, R&D Systems, DY201). The IL-1β concentrations were plotted against log concentrations of test compounds, and an IC50 value was calculated by sigmoid Emax model nonlinear regression analysis.
Example compounds were confirmed to inhibit NLRP3 inflammasome activation and IL-1β production.
A general note: ELISA stands for enzyme-linked immunosorbent assay.

T1 sequence (Q96P20 whole entry): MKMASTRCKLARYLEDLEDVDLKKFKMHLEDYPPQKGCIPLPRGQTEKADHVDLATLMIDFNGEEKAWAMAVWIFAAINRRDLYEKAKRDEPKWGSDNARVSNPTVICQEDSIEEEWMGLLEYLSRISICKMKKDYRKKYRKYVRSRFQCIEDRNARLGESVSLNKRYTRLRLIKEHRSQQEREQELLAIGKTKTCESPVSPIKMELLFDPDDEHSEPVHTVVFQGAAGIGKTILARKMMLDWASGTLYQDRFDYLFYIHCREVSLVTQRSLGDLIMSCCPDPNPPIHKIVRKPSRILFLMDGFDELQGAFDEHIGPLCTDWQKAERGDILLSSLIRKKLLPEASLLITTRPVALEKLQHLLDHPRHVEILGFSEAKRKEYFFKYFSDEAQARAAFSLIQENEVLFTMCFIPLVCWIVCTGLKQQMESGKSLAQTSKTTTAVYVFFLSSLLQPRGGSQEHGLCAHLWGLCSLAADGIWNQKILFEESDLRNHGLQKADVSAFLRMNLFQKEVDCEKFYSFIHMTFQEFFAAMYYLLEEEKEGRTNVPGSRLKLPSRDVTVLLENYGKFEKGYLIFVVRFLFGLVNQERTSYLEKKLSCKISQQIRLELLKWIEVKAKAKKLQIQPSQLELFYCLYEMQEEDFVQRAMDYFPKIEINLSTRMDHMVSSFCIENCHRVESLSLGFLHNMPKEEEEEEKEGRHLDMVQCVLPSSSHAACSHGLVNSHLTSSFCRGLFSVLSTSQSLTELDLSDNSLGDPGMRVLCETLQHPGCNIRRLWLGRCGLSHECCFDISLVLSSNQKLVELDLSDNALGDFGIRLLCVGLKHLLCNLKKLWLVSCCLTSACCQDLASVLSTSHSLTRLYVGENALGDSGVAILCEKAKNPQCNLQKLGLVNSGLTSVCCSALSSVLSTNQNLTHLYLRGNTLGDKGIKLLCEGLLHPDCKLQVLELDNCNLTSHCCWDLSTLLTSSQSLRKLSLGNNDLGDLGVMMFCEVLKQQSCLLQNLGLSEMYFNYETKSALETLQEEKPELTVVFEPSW

The IC50 is the point on the concentration scale where inhibition reaches its midpoint. In the case of `Cc1c(-c2ccc(C(F)(F)F)cc2O)nnc2c1COCCN2[C@@H]1CCCC[C@H]1O` [Example 4, 2-{9-[(1R,2R)-2-hydroxycyclohexyl]-4-methyl-5,7,8,9-tetrahydropyridazino[3,4-e][1,4]oxaazepin-3-yl}-5-(trifluoromethyl)phenol], the half-maximal inhibitory concentration (IC50) was found to be 0.0068 µM.
For the compound `Cc1ccc(-c2nnc3c(c2C)CCCN3[C@@H]2CCCN(C)C2)c(O)c1` [Example 11], the IC50 was determined as 0.046 µM.
Next, `Cc1c(-c2ccc(OC(F)F)cc2O)nnc2c1CCCN2[C@@H]1CCCC[C@H]1O` [Example 28, 5-(difluoromethoxy)-2-{8-[(1R,2R)-2-hydroxycyclohexyl]-4-methyl-5,6,7,8-tetrahydropyrido[2,3-c]pyridazin-3-yl}phenol]: 0.0081 µM; `Cc1c(-c2ccc(C(F)(F)F)cc2O)nnc2c1CCCN2[C@@H]1CCCN(CCO)C1` [Example 27, 2-{8-[(3R)-1-(2-hydroxyethyl)piperidin-3-yl]-4-methyl-5,6,7,8-tetrahydropyrid[2,3-c]pyridazin-3-yl}-5-(trifluoromethyl)phenol dihydrochloride]: 0.042 µM; `CCN1CCC[C@@H](N2CCCc3c2nnc(-c2ccc(C(F)(F)F)cc2O)c3C)C1` [Example 3, 2-{8-[(3R)-1-ethylpiperidin-3-yl]-4-methyl-5,6,7,8-tetrahydropyrid[2,3-c]pyridazin-3-yl}-5-(trifluoromethyl)phenol]: 0.003 µM.
Consider `Cc1c(-c2ccc(C(F)(F)F)cc2O)nnc2c1CCCN2[C@@H]1CCN(C)C[C@H]1O` [Example 16], for which the IC50 is 1.9 µM.
